Laboratory results: PubChem BioAssay (NCI)
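These data come from cells grown in 96-well plates and exposed to compound for 48 hours at five concentrations. The concentration for full growth arrest is given as TGI.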

Tests used:
Test in all cases: inhibition of tumour cell growth, NCI panel, 48 h
[1] = system: SK-MEL-5 melanoma
[2] = system: SF-268 CNS
[3] = system: SF-295 CNS
[4] = system: HOP-62 NSCLC
[5] = system: A549 NSCLC
[6] = system: SR leukemia
[7] = system: SK-MEL-2 melanoma
[8] = system: OVCAR-5 ovarian
[9] = system: SNB-19 CNS
[10] = system: SN12C renal
[11] = system: NCI-H226 lung
[12] = system: OVCAR-4 ovarian
[13] = system: EKVX NSCLC
[14] = system: HCC-2998 colon
[15] = system: LOX IMVI melanoma
[16] = system: UACC-62 melanoma
[17] = system: OVCAR-3 ovarian
[18] = system: HCT-15 colon
[19] = system: KM20L2 colon
[20] = system: UACC-257 melanoma
[21] = system: 786-0 renal
[22] = system: SW-620 colon
[23] = system: MALME-3M melanoma
[24] = system: COLO 205 colon
[25] = system: NCI-H23 lung
[26] = system: NCI-H460 lung
[27] = system: DLD-1 colon
[28] = system: CAKI-1 renal
[29] = system: SK-OV-3 ovarian
[30] = system: SK-MEL-28 melanoma
[31] = system: HL-60(TB) leukemia
[32] = system: LXFL 529 NSCLC
[33] = system: ACHN renal
[34] = system: IGROV1 ovarian
[35] = system: CCRF-CEM leukemia
[36] = system: SF-539 CNS
[37] = system: M14 melanoma
[38] = system: KM12 colon
[39] = system: K-562 leukemia
[40] = system: DMS 273 small cell lung
[41] = system: TK-10 renal
[42] = system: OVCAR-8 ovarian
[43] = system: M19-MEL melanoma
[44] = system: DMS 114 small cell lung
[45] = system: RPMI-8226 leukemia
[46] = system: HT29 colon
[47] = system: SNB-78 CNS
[48] = system: NCI-H522 lung
[49] = system: MOLT-4 leukemia
[50] = system: HOP-92 NSCLC
[51] = system: HCT-116 colon
[52] = system: UO-31 renal
[53] = system: A498 renal
[54] = system: RXF 393 renal
[55] = system: SNB-75 CNS
[56] = system: U251 CNS

SMILES: O=C(c1nc2ccc(Cl)cc2[nH]c1=O)C(O)c1ccccc1 (stereo not given)
- TGI [1]: > 100 µM
- TGI [2]: > 100 µM
- TGI [3]: > 100 µM
- TGI [4]: > 100 µM
- TGI [5]: > 100 µM
- TGI [6]: > 100 µM
- TGI [7]: > 100 µM
- TGI [8]: > 100 µM
- TGI [9]: > 100 µM
- TGI [10]: > 100 µM
- TGI [11]: > 100 µM
- TGI [12]: > 100 µM
- TGI [13]: > 100 µM
- TGI [14]: > 100 µM
- TGI [15]: > 100 µM
- TGI [16]: > 100 µM
- TGI [17]: > 100 µM
- TGI [18]: > 100 µM
- TGI [19]: > 100 µM
- TGI [20]: > 100 µM
- TGI [21]: > 100 µM
- TGI [22]: > 100 µM
- TGI [23]: > 100 µM
- TGI [24]: > 100 µM
- TGI [25]: > 100 µM
- TGI [26]: > 100 µM
- TGI [27]: > 100 µM
- TGI [28]: > 100 µM
- TGI [29]: > 100 µM
- TGI [30]: > 100 µM
- TGI [31]: 68.8 µM
- TGI [32]: > 100 µM
- TGI [33]: > 100 µM
- TGI [34]: > 100 µM
- TGI [35]: 25.4 µM
- TGI [36]: > 100 µM
- TGI [37]: > 100 µM
- TGI [38]: > 100 µM
- TGI [39]: > 100 µM
- TGI [40]: > 100 µM
- TGI [41]: > 100 µM
- TGI [42]: > 100 µM
- TGI [43]: > 100 µM
- TGI [44]: > 100 µM
- TGI [45]: > 100 µM
- TGI [46]: > 100 µM
- TGI [47]: > 100 µM
- TGI [48]: > 100 µM
- TGI [49]: > 100 µM
- TGI [50]: > 100 µM
- TGI [51]: > 100 µM
- TGI [52]: > 100 µM
- TGI [53]: > 100 µM

SMILES: CC1CCC(=O)NCCCCC(=O)N1 (stereo not given)
- TGI [1]: > 100 µM
- TGI [2]: > 100 µM
- TGI [3]: > 100 µM
- TGI [4]: > 100 µM
- TGI [5]: > 100 µM
- TGI [6]: > 100 µM
- TGI [7]: > 100 µM
- TGI [54]: > 100 µM
- TGI [8]: > 100 µM
- TGI [9]: > 100 µM
- TGI [10]: > 100 µM
- TGI [11]: > 100 µM
- TGI [12]: > 100 µM
- TGI [13]: > 100 µM
- TGI [14]: > 100 µM
- TGI [15]: > 100 µM
- TGI [16]: > 100 µM
- TGI [17]: > 100 µM
- TGI [55]: > 100 µM
- TGI [19]: > 100 µM
- TGI [20]: > 100 µM
- TGI [21]: > 100 µM
- TGI [22]: > 100 µM
- TGI [23]: > 100 µM
- TGI [56]: > 100 µM
- TGI [24]: > 100 µM
- TGI [25]: > 100 µM
- TGI [26]: > 100 µM
- TGI [27]: > 100 µM
- TGI [28]: > 100 µM
- TGI [29]: > 100 µM
- TGI [30]: > 100 µM
- TGI [31]: > 100 µM
- TGI [32]: > 100 µM
- TGI [33]: > 100 µM
- TGI [34]: > 100 µM
- TGI [35]: > 100 µM
- TGI [36]: > 100 µM
- TGI [37]: > 100 µM
- TGI [38]: > 100 µM
- TGI [39]: > 100 µM
- TGI [40]: > 100 µM
- TGI [41]: > 100 µM
- TGI [42]: > 100 µM
- TGI [43]: > 100 µM
- TGI [44]: > 100 µM
- TGI [45]: > 100 µM
- TGI [46]: > 100 µM
- TGI [47]: > 100 µM
- TGI [48]: > 100 µM
- TGI [49]: > 100 µM
- TGI [50]: > 100 µM
- TGI [51]: > 100 µM
- TGI [52]: > 100 µM
- TGI [53]: > 100 µM

SMILES: COC1=C(OC)C(O)(c2ccccc2)C1=O (stereo not given)
- TGI [2]: > 100 µM
- TGI [3]: > 100 µM
- TGI [4]: > 100 µM
- TGI [5]: > 100 µM
- TGI [6]: > 100 µM
- TGI [54]: > 100 µM
- TGI [8]: > 100 µM
- TGI [9]: > 100 µM
- TGI [13]: > 100 µM
- TGI [20]: > 100 µM
- TGI [56]: > 100 µM
- TGI [25]: > 100 µM
- TGI [26]: > 100 µM
- TGI [29]: > 100 µM
- TGI [30]: > 100 µM
- TGI [31]: > 100 µM
- TGI [33]: > 100 µM
- TGI [34]: > 100 µM
- TGI [35]: > 100 µM
- TGI [37]: > 100 µM
- TGI [38]: > 100 µM
- TGI [40]: > 100 µM
- TGI [41]: 85.7 µM
- TGI [42]: > 100 µM
- TGI [43]: > 100 µM
- TGI [46]: > 100 µM
- TGI [47]: > 100 µM
- TGI [48]: > 100 µM
- TGI [49]: > 100 µM
- TGI [50]: > 100 µM
- TGI [52]: > 100 µM
- TGI [53]: > 100 µM
